Results published in US20230218688A1 (Zhejiang Chinese Medical University, priority 2022, published 2023).

Assays:
[1] = tested on: Lactobacillus helveticus ZJUIDS12; experiment: Antibiotic susceptibility of Lactobacillus helveticus ZJUIDS12 (susceptibility paper, inhibition zone); assay type: cell-based; set-up: key to Susceptive type: S: sensitive; I: intermediate; R: insensitive; conditions: according to CLSI 2017
[2] = tested on: Helicobacter pylori ATCC43504; experiment: Growth inhibition experiment on Helicobacter pylori; assay type: cell-based

Compound | Susceptive type [1] | susceptibility of Lactobacillus helveticus ZJUIDS12 to the antibiotic (in words) [1] | Inhibition rates to Helicobacter pylori (%) ([2]; Fermentation supernatant) | Inhibition rates to Helicobacter pylori (%) ([2]; Suspension)
NCC[C@H](O)C(=O)N[C@@H]1C[C@H](N)[C@@H](O[C@H]2O[C@H](CN)[C@@H](O)[C@H](O)[C@H]2O)[C@H](O)[C@H]1O[C@H]1O[C@H](CO)[C@@H](O)[C@H](N)[C@H]1O [Amikacin (AK), Amikacin] | S | sensitive | – | –
CC1(C)S[C@@H]2[C@H](NC(=O)[C@H](N)c3ccccc3)C(=O)N2[C@H]1C(=O)O [Ampicillin (AM), Ampicillin] | S | sensitive | – | –
Cc1nnc(SCC2=C(C(=O)O)N3C(=O)[C@@H](NC(=O)Cn4cnnn4)[C@H]3SC2)s1 [Cefazolin(CZ), Cefazolin] | S | sensitive | – | –
O=C(N[C@H](CO)[C@H](O)c1ccc([N+](=O)[O-])cc1)C(Cl)Cl [Chloramphenicol (C), Chloramphenicol] | S | sensitive | – | –
CC[C@H]1OC(=O)[C@H](C)[C@@H](O[C@H]2C[C@@](C)(OC)[C@@H](O)[C@H](C)O2)[C@H](C)[C@@H](O[C@@H]2O[C@H](C)C[C@H](N(C)C)[C@H]2O)[C@](C)(O)C[C@@H](C)C(=O)[C@H](C)[C@@H](O)[C@]1(C)O [Erythromycin (E), Erythromycin] | S | sensitive | – | –
CCn1cc(C(=O)O)c(=O)c2cc(F)c(N3CCNCC3)cc21 [Norfloxacin (NOR), Norfloxacin] | S | sensitive | – | –
CC1(C)S[C@@H]2[C@H](NC(=O)Cc3ccccc3)C(=O)N2[C@H]1C(=O)O [Penicillin G(P), Penicillin G] | S | sensitive | – | –
Cc1ncc([N+](=O)[O-])n1CCO [Positive control, metronidazole] | – | – | 100 | 100
Cc1cc(NS(=O)(=O)c2ccc(N)cc2)no1 [Sulfamethoxazole (SXT), Sulfamethoxazole] | R | insensitive | – | –
Gentamicin [Gentamicin (GM)] | I | intermediate | – | –
